From ChEMBL document CHEMBL4387741, “Optimization of novel reversible Bruton's tyrosine kinase inhibitors identified using Tethering-fragment-based screens” (Bioorg Med Chem, 2019) come the findings set out here.

Assay [1] addresses Tyrosine-protein kinase receptor Tie-1 (Homo sapiens) (UniProt P35590). In words: Inhibition of wild-type human partial length TIE1 (T819 to A1138 residues) expressed in bacterial expression system at 1 uM by Kinomescan method relative to control.
For assay [2], the target named is Dual specificity tyrosine-phosphorylation-regulated kinase 1A (Homo sapiens) (UniProt Q13627). In words: Inhibition of wild-type human partial length DYRK1A (H129 to S509 residues) expressed in mammalian expression system at 1 uM by Kinomescan method relative to control.
Assay [3] relates to Receptor-type tyrosine-protein kinase FLT3 (Homo sapiens), P36888 [UNDEFINED MUTATION]. The experiment in a line: Inhibition of human partial length FLT3 ITD mutant expressed in bacterial expression system at 1 uM by Kinomescan method relative to control.
Assay [4] deals with Serine/threonine-protein kinase PLK4 (Homo sapiens) (UniProt O00444). The experiment in a line: Inhibition of wild-type human partial length PLK4 (M1 to S273 residues) expressed in mammalian expression system at 1 uM by Kinomescan method relative to control.
Assay [5] relates to Tyrosine-protein kinase ABL1 (Homo sapiens), P00519 [F317I]. In words: Inhibition of human phosphorylated ABL1 F317I mutant (S229 to K512 residues) expressed in mammalian expression system at 1 uM by Kinomescan method relative to control.
Assay [6] has as its target Mitogen-activated protein kinase kinase kinase kinase 5 (Homo sapiens) (UniProt Q9Y4K4). The experiment in a line: Inhibition of wild-type human partial length MAP4K5 (M1 to P297 residues) expressed in bacterial expression system at 1 uM by Kinomescan method relative to control.
Assay [7] concerns the target Uncharacterized serine/threonine-protein kinase SBK3 (Homo sapiens) (UniProt P0C264). The experiment in a line: Inhibition of wild-type human partial length SgK110 (L22 to R329 residues) expressed in bacterial expression system at 1 uM by Kinomescan method relative to control.
For assay [8], the target named is Cyclin-dependent kinase 18 (Homo sapiens) (UniProt Q07002). In words: Inhibition of wild-type human full length PCTK3 (M3 to F474 residues) expressed in bacterial expression system at 1 uM by Kinomescan method relative to control.
In assay [9] the target is Epithelial discoidin domain-containing receptor 1 (Homo sapiens) (UniProt Q08345). In words: Inhibition of wild-type human partial length DDR1 (R565 to V876 residues) expressed in bacterial expression system at 1 uM by Kinomescan method relative to control.
In assay [10] the test system is Epidermal growth factor receptor (Homo sapiens), P00533 [UNDEFINED MUTATION]. The experiment in a line: Inhibition of human partial length EGFR L747-E749del/A750P mutant expressed in bacterial expression system at 1 uM by Kinomescan method relative to control.
Assay [11] addresses Receptor tyrosine-protein kinase erbB-2 (Homo sapiens) (UniProt P04626). The experiment in a line: Inhibition of wild-type human partial length ERBB2 (K646 to V1225 residues) expressed in mammalian expression system at 1 uM by Kinomescan method relative to control.
In assay [12] the target is Calcium/calmodulin-dependent protein kinase type II subunit alpha (Homo sapiens) (UniProt Q9UQM7). In words: Inhibition of wild-type human partial length CAMK2A (M1 to K328 residues) expressed in bacterial expression system at 1 uM by Kinomescan method relative to control.
Assay [13] addresses Serine/threonine-protein kinase TBK1 (Homo sapiens) (UniProt Q9UHD2). In words: Inhibition of wild-type human full length TBK1 (M1 to L729 residues) expressed in mammalian expression system at 1 uM by Kinomescan method relative to control.
Assay [14] addresses Cyclin-dependent kinase 4 (Homo sapiens) (UniProt P11802). The experiment in a line: Inhibition of wild-type human full length CDK4 (M1 to E303 residues) expressed in mammalian expression system at 1 uM by Kinomescan method relative to control.
Assay [15] concerns the target Fibroblast growth factor receptor 1 (Homo sapiens) (UniProt P11362). In words: Inhibition of wild-type human partial length FGFR1 (P357 to V669 residues) expressed in bacterial expression system at 1 uM by Kinomescan method relative to control.
The target of assay [16] is Tyrosine-protein kinase JAK3 (Homo sapiens) (UniProt P52333). The experiment in a line: Inhibition of wild-type human partial length JAK3 JH1 catalytic domain (I781 to S1124 residues) expressed in mammalian expression system at 10 uM by Kinomescan method relative to control.
In assay [17] the target is Receptor-interacting serine/threonine-protein kinase 4 (Homo sapiens) (UniProt P57078). In words: Inhibition of wild-type human partial length RIPK4 (M1 to V303 residues) expressed in mammalian expression system at 10 uM by Kinomescan method relative to control.
For assay [18], the target named is Ribosomal protein S6 kinase beta-1 (Homo sapiens) (UniProt P23443). In words: Inhibition of wild-type human partial length S6K1 (M1 to S421 residues) expressed in mammalian expression system at 10 uM by Kinomescan method relative to control.
For assay [19], the target named is Serine/threonine-protein kinase 4 (Homo sapiens) (UniProt Q13043). The experiment in a line: Inhibition of wild-type human full length MST1 (M1 to F487 residues) expressed in bacterial expression system at 10 uM by Kinomescan method relative to control.
In assay [20] the target is Hepatocyte growth factor receptor (Homo sapiens) (UniProt P08581). The experiment in a line: Inhibition of wild-type human partial length MET (D1010 to S1367 residues) expressed in bacterial expression system at 10 uM by Kinomescan method relative to control.
Hepatocyte growth factor receptor (Homo sapiens), sequence (P08581 whole entry, the tested form may be a part): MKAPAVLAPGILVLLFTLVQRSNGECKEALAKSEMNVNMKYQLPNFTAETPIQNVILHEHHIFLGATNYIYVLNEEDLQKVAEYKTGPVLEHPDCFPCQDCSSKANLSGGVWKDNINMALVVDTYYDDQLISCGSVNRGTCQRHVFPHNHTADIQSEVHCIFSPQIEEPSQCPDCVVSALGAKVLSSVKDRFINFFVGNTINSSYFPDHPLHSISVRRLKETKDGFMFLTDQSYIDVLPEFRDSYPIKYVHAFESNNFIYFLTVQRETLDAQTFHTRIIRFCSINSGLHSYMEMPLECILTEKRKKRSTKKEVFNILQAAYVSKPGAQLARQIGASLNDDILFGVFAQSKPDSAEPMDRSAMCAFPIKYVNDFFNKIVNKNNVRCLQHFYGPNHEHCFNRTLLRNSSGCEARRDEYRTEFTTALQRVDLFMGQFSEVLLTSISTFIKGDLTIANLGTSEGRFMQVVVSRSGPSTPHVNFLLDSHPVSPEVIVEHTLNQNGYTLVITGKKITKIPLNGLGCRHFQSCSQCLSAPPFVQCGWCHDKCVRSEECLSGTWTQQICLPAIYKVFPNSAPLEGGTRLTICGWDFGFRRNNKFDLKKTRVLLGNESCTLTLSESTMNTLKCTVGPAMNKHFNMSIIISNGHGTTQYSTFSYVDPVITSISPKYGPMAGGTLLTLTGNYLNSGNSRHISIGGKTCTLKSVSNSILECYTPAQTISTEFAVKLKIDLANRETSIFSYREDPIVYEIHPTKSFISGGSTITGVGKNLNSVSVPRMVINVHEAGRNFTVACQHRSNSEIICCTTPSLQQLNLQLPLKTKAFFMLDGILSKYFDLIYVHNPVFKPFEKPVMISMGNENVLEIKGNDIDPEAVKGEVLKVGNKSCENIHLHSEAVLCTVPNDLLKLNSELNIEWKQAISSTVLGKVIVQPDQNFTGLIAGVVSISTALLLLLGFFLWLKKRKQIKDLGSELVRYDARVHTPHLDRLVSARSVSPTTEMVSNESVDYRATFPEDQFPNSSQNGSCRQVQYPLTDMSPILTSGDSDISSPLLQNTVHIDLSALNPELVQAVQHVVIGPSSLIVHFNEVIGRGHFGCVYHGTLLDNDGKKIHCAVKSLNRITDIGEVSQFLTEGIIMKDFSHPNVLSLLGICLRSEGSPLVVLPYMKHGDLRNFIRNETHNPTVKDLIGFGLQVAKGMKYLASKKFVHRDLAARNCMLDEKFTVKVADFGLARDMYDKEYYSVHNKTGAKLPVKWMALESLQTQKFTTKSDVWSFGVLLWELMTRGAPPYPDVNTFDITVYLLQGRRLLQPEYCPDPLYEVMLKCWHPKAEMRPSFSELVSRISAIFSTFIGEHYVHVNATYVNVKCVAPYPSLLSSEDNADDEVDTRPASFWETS
The target of assay [21] is Interleukin-1 receptor-associated kinase 1 (Homo sapiens) (UniProt P51617). The experiment in a line: Inhibition of wild-type human partial length IRAK1 (R194 to S712 residues) expressed in mammalian expression system at 10 uM by Kinomescan method relative to control.
Assay [22] concerns the target Glycogen synthase kinase-3 beta (Homo sapiens) (UniProt P49841). The experiment in a line: Inhibition of wild-type human full length GSK3B (M1 to T433 residues) expressed in mammalian expression system at 10 uM by Kinomescan method relative to control.
Assay [23] has as its target Serine/threonine-protein kinase/endoribonuclease IRE1 (Homo sapiens) (UniProt O75460). The experiment in a line: Inhibition of wild-type human partial length ERN1 (S551 to E852 residues) expressed in mammalian expression system at 10 uM by Kinomescan method relative to control.
Assay [24] has as its target Ephrin type-B receptor 2 (Homo sapiens) (UniProt P29323). In words: Inhibition of wild-type human partial length EPHB2 (I597 to L902 residues) expressed in bacterial expression system at 10 uM by Kinomescan method relative to control.
Assay [25] addresses Proto-oncogene tyrosine-protein kinase receptor Ret (Homo sapiens) (UniProt P07949). The experiment in a line: Inhibition of wild-type human partial length RET (E713 to D1014 residues) expressed in bacterial expression system at 10 uM by Kinomescan method relative to control.
Assay [26] addresses STE20/SPS1-related proline-alanine-rich protein kinase (Homo sapiens) (UniProt Q9UEW8). The experiment in a line: Inhibition of wild-type human partial length STK39 (P43 to I357 residues) expressed in mammalian expression system at 10 uM by Kinomescan method relative to control.
The target in assay [27] is Mitogen-activated protein kinase 11 (Homo sapiens) (UniProt Q15759). The experiment in a line: Inhibition of wild-type human full length p38-beta (M1 to Q364 residues) expressed in bacterial expression system at 10 uM by Kinomescan method relative to control.

Receptor tyrosine-protein kinase erbB-2 (Homo sapiens), sequence (P04626 whole entry, the tested form may be a part): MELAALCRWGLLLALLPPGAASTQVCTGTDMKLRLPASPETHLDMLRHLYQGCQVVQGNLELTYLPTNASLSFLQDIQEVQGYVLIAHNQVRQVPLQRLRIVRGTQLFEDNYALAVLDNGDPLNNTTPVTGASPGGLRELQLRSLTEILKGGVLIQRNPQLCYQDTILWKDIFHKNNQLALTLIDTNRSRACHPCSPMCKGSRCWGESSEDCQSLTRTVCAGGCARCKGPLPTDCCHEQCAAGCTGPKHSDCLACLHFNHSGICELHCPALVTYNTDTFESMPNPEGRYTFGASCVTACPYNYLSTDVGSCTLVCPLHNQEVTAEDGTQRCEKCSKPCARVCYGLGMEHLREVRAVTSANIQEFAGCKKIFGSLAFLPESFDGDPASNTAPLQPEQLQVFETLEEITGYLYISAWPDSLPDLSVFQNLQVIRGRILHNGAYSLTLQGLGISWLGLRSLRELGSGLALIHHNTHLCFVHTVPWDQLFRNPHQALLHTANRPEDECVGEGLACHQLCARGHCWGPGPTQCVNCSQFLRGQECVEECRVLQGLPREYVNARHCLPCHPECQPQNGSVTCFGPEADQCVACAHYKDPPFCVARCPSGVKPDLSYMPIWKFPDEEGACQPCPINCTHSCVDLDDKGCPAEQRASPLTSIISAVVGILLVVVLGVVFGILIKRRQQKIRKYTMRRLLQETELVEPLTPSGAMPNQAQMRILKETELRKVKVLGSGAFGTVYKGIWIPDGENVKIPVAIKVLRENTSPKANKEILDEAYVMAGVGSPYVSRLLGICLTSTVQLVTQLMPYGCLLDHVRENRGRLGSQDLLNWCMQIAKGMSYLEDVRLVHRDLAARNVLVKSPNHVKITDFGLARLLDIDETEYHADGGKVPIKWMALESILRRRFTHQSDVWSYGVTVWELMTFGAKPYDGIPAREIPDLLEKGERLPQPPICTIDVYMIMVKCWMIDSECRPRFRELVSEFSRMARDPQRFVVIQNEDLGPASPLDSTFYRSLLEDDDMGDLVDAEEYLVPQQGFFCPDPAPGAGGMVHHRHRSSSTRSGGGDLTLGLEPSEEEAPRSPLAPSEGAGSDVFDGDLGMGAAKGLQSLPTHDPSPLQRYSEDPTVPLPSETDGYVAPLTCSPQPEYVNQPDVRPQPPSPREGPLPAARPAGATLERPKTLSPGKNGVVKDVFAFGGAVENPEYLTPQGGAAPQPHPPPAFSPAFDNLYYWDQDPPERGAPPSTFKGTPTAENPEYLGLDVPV
Serine/threonine-protein kinase/endoribonuclease IRE1 (Homo sapiens), sequence (O75460 19-977 limits assumed): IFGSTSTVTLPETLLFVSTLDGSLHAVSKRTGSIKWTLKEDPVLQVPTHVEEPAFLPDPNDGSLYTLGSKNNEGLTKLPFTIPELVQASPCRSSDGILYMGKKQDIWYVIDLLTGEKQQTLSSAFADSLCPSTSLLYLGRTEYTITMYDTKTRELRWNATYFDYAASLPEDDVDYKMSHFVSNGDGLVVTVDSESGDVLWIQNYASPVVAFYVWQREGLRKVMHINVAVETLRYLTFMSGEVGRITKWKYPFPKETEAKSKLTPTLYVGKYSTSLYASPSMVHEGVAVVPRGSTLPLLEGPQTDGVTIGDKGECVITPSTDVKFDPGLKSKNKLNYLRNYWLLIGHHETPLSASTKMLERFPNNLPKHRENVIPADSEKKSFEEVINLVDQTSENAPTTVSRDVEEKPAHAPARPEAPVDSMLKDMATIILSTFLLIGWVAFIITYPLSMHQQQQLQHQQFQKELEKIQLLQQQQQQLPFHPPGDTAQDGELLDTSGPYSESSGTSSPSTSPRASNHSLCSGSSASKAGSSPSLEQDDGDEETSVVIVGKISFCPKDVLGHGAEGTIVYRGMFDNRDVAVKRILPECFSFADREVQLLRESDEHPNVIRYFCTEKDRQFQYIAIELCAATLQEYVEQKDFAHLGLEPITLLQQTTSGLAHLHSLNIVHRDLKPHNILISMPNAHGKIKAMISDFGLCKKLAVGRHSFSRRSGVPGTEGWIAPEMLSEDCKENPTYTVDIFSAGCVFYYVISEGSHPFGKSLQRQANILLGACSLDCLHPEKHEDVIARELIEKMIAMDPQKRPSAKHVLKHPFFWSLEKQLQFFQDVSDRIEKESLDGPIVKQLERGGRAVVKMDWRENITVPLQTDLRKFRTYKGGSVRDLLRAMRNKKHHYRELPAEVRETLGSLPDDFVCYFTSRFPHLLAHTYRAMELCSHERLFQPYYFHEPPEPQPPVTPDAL
Proto-oncogene tyrosine-protein kinase receptor Ret (Homo sapiens), sequence (P07949 whole entry, the tested form may be a part): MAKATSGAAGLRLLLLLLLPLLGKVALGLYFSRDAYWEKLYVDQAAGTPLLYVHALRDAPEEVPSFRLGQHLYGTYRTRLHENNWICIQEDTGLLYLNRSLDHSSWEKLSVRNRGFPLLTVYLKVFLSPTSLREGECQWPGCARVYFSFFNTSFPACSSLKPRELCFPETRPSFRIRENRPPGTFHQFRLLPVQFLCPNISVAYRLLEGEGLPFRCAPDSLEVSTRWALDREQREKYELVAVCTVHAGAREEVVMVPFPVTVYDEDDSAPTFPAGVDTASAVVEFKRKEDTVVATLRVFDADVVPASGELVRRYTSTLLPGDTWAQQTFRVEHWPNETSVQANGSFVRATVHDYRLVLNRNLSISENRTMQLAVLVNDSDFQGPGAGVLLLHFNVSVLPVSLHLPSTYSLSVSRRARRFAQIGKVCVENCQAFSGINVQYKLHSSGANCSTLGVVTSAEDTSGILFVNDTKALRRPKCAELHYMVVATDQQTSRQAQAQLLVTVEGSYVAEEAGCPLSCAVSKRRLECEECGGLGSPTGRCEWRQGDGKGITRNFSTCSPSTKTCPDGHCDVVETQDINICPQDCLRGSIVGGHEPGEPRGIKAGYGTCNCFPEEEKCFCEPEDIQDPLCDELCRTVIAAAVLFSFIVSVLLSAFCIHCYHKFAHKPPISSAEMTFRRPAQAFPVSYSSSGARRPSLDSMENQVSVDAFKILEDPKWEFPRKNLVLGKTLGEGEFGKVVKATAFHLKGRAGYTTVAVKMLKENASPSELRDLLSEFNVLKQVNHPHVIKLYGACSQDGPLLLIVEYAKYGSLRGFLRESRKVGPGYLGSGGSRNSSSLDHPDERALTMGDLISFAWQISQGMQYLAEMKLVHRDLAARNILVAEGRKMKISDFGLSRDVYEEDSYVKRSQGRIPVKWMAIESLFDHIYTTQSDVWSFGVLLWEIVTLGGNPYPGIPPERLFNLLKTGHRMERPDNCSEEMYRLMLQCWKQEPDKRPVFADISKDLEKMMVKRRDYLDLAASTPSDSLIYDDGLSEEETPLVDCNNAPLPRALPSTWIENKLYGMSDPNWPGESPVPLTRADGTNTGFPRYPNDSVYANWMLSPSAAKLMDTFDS
Cyclin-dependent kinase 4 (Homo sapiens), sequence (P11802 whole entry, the tested form may be a part): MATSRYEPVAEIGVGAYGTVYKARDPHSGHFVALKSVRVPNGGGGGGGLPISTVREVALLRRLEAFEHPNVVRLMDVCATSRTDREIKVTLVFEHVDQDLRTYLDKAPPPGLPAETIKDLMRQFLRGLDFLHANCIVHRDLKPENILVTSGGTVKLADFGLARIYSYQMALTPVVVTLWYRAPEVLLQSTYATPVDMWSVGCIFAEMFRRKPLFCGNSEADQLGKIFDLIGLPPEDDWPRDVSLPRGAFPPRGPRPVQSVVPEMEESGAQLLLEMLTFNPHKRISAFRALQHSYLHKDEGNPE

As to `O=C(Nc1cccc([C@@H]2CN(c3ncnc4[nH]ccc34)CCN2CCO)c1)Nc1c(F)cccc1N1CCCC1`, the inhibition – broadly, the percentage by which the read-out fell short of the control – in [1] turned out to be 99%; in assay [2], 87%; in assay [3], 8.7%; in assay [4] it was 6.3%; in assay [5], 100%; in assay [6] it was 91%. Further, the inhibition in assay [7] was found to be 100%; in assay [8] it was 97%; in [9], 82%; in assay [10], 87%; in [11], 83%; in [12] it was 95%. Also, the inhibition in [13] is 81%; in assay [14], 100%; in assay [15], 46%.

For `O=C(Nc1cccc([C@H]2CCCN(c3ncnc4[nH]ccc34)C2)c1)Nc1ccccc1N1CCCC1`, the inhibition was determined as 0.35% in assay [16]; 71% in assay [17]; 23% in [18]; 47% in assay [19]; 86% in assay [20]; 80% in [21]. The inhibition is 77% in assay [22]; 45% in [23]; 69% in assay [24]; 0% in assay [25]; 75% in assay [26]; 100% in assay [27].
